This is an account of results in patent publication US9427433B2, “Methods and compositions for enhancing fertility and/or inhibiting pregnancy failure and restoring glucose tolerance” (Queen's University at Kingston, priority 2011, dated 2016).

Data set [1] has as its system type 2 diabetic NZO and DIO mice. In words: Serum testosterone and luteinizing hormone (PCOS phenotype). The class given is in vivo, mouse. As to the method:
Hypertestosteronism (Hyperandrogenism) and low serum levels of Luteinizing hormone (LH) are among the cardinal biochemical features of established PCOS syndrome. […] Serum samples from tacrolimus-treated and saline-injected type 2 diabetic NZO and DIO mice were analyzed for their testosterone and luteinizing hormone (LH) levels in the morning of vaginal plug detection after mating and at 4.5 days later to assess the integrity of their pituitary-ovarian endocrine interactions during successful mating and at embryo implantation.
Twenty NZO and DIO/B6 female mice were maintained on a high fat diet consisted of 60% kcal fat, 20% kcal protein and 20% kcal carbohydrate, with a total energy mass of 5.24 kcal/gm (D12492, Research Diets Inc.; Cedarlane Laboratories, Burlington, Ontario, Canada) starting at 7 weeks of age and maintained on the diet for a total of 12 weeks of study period during which their weekly body weight changes and non-fasting blood glucose values were recorded. Mice which became obese as defined by having a Body mass index (BMI) value of 30, and tested positive for glucose intolerance were selected for an initial treatment episode with tacrolimus after being fed for four weeks with the high fat diet (See FIG. 2). […]

The subject of data set [2] is uterine cytokines (IFN-γ, TNFα, IL16, IL12 family and others). Nature of the data set: Cytokine multiplex profiling in uteri at peri-implantation. The class given is in vivo, mouse. From the text: In all untreated or vehicle-treated diabetic mice, an aberrant over-expression of IFN-γ, TNFα and IL16 accounted for the immune-cytotoxicity related implantation failure in these mice.

Data set [3] relates to grossly obese and glucose intolerant NZO female mice. In words: Weight loss in grossly obese mice. It counts as in vivo, mouse. To be noted: 0.1 mg/kg every other day for four weeks; vs vehicle, p<0.05. Here is the method: Data shown are mean±SEM of changes in body mass in mice administered tacrolimus (0.1 mg/kg every other day) for four weeks starting at week 16 (N=10/group). Statistical difference between groups was measured by one-way ANOVA at 95% confidence.
For studies on a grossly obese state, mice were maintained on the 60% high fat diet for 24 weeks starting at 7 weeks of age and designated as being type II diabetic according to methods described above.

In data set [4] the test system is female NZO mice fed a continuous high fat diet. Nature of the data set: Weight loss, comparison of macrolides. The class given is in vivo, mouse. To be noted: tacrolimus 0.05 or 0.1 mg/kg, pimecrolimus 0.1 mg/kg, sirolimus 0.1 mg/kg s.c. every other day for three weeks; vs vehicle. From the text:
For the comparative evaluation of other macrolide drugs to tacrolimus, mice starting at 7 weeks of age were maintained on the high fat diet for a total of 13 weeks of study period. Mice were entered into the experiments when determined to be glucose intolerant as described above. Methods of drug administration and other experimental methods were as described above.

A short description of data set [5]: Likely blood concentration from the dose regimen described herein (extrapolated). The class given is in vivo, mouse. The following applies: four-fold lower than the rat value. Here is the method: The smallest currently available tacrolimus dose is a 0.5 mg capsule and a single oral dose of 0.5 mg tacrolimus results in a maximal blood concentration in humans of 4.6 ng/ml (Mathew et al. Clinical Therapeutics. 2011 33(9):1105-1119). This represents over a seven-fold difference based upon the efficacious blood concentration of tacrolimus in experiments disclosed herein. A dose of 0.1 mg/kg in rats represents does of 0.2 mg/kg in mice, based upon a rat Km=6. This is a four-fold higher dose (0.2 mg/kg) than used in experiments disclosed herein. Therefore, the likely blood concentration from the dose regimen described herein would be four-fold lower (i.e. 0.15 ng/ml blood concentration) and represents an even greater exposure difference (28-fold to 38-fold) compared to existing tacrolimus dose forms for humans. Thus, experiments disclosed herein indicate that a substantially lower dose of macrolide agent such as tacrolimus than routinely administered to date may be useful in the methods of the present invention. By “substantially lower dose” or “low dose therapy” for purposes of the present invention, it is meant a dose of macrolide agent at least 2-fold lower, more preferably at least 4-fold lower, more preferably at least 10-fold lower, than the recommended starting doses of tacrolimus (Prograf) when administered for kidney and liver transplant or heart transplant.

For data set [6] the following is noted: humans, single oral dose of 0.5 mg; cited from earlier work.

For `C=CC[C@@H]1/C=C(\C)C[C@H](C)C[C@H](OC)[C@H]2O[C@@](O)(C(=O)C(=O)N3CCCC[C@H]3C(=O)O[C@H](/C(C)=C/[C@@H]3CC[C@@H](O)[C@H](OC)C3)[C@H](C)[C@@H](O)CC1=O)[C@H](C)C[C@@H]2OC` [tacrolimus], the “pituitary-ovarian response and hormonal release to mating” value in data set [1] (morning of vaginal plug and 4.5 days later) is “restored normal pituitary-ovarian response and hormonal release to mating”. In addition, the “development of PCOS phenotype (hypertestosteronism, low serum LH)” value in data set [1] (short-term administration, high fat diet) was “prevented the development of PCOS phenotype”. The “anti-inflammatory cytokines IL-1ra, IL10 and IL2 in uteri” value in data set [2] (diabetes prone mice, FIG. 12) was “inhibition of some anti-inflammatory cytokines such as IL-1ra, IL10 and IL2”. Besides, the “cytokines involved in inflammation, T-cell cytotoxicity and blood coagulation” value in data set [2] (peri-implantation, FIG. 8) was “pan-inhibition of cytokines involved in inflammation, T-cell cytotoxicity and blood coagulation”. For the same compound, the “uterine expression of MCP1, MCP5, MIG9, RANTES, SDF-1, KC” value in data set [2] (peri-implantation, FIG. 9) is reported as “significantly downregulated the uterine expression of six major IFN-γ-regulated inflammatory cytokines”. In data set [2] (short-term administration prior to mating, peri-implantation), the “Th1-induced cytokines (IFN-γ, IL16, TNFα, IL12 family) in uteri” value is recorded as “significant inhibition of the vast majority of Th1-induced cytokines”. The “IL12 family cytokines in uteri” value in data set [2] (time of implantation, FIG. 7F) was “downregulating members of IL12 family cytokines”. Further, in data set [2] (time of implantation, FIG. 11), the “IL5, IL7 and IL13 expression in uteri” value is “restored normalized levels of IL5, IL7 and IL13 expression”. Moreover, the weight loss entry in data set [3] is on record as “induced a significant weight loss”; in data set [4], “significantly induced weight loss”. Besides, the likely blood concentration in data set [5] was 0.15 ng/mL. Besides, in data set [6], the maximal blood concentration is 4.6 ng/mL.
